Values after ≈ are worked out from the molar mass of the structure shown. Where two headings read alike, the source gives them in different places.

As a reminder, the solubility is the concentration that dissolves in the medium under given conditions. Usually IC50 stands for the midpoint of a concentration-inhibition curve.

Series [1] in a line: Solubility test by UV-Vis spectroscopy of saturated solutions. Format: physicochemical. Particulars: saturated solution; for solubility: thermodynamic from solid. As to the method:
All UV-Vis measurements were carried out with an Agilent Cary 60 UV-Vis 2.00 between 800-200 nm. The absorbance was measured with a scan rate of 300.0 nm/min, a data interval of 0.50 nm and an UV-Vis Average Time of 0.10 s. For all measurements a cuvette with 10 mm light path was used. A calibration curve was plotted from several different concentrations and the solubility of the respective compound was determined by measuring the absorbance of a diluted saturated solution. As a blank curve a mixture of ultrapure water and ethanol in a ratio of 1:1 or 5:95 was recorded. For the calibration curve a 100 μM or a 10 μM solution of the compound in an ultrapure water:ethanol (1:1) or (5:95)-mixture was prepared and diluted to obtain at least 6 concentrations. […] The supernatant was taken using a syringe and filtered through a syringe filter (RC Membrane). The saturated solution was diluted with ultrapure water and ethanol to obtain an appropriate concentration in a water:ethanol (1:1) or (5:95)-mixture. The long wave absorbance maximum was used for determination of the solubility (mean values, determination in triplicate). […] By plotting the concentration of the solution against the absorbance values at the previously determined wavelength maximum a calibration curve was obtained (FIG. 1B).

Another series addresses T1, human FLT3-ITD (Homo sapiens, UniProt P36888).
T1 sequence (P36888 1-993): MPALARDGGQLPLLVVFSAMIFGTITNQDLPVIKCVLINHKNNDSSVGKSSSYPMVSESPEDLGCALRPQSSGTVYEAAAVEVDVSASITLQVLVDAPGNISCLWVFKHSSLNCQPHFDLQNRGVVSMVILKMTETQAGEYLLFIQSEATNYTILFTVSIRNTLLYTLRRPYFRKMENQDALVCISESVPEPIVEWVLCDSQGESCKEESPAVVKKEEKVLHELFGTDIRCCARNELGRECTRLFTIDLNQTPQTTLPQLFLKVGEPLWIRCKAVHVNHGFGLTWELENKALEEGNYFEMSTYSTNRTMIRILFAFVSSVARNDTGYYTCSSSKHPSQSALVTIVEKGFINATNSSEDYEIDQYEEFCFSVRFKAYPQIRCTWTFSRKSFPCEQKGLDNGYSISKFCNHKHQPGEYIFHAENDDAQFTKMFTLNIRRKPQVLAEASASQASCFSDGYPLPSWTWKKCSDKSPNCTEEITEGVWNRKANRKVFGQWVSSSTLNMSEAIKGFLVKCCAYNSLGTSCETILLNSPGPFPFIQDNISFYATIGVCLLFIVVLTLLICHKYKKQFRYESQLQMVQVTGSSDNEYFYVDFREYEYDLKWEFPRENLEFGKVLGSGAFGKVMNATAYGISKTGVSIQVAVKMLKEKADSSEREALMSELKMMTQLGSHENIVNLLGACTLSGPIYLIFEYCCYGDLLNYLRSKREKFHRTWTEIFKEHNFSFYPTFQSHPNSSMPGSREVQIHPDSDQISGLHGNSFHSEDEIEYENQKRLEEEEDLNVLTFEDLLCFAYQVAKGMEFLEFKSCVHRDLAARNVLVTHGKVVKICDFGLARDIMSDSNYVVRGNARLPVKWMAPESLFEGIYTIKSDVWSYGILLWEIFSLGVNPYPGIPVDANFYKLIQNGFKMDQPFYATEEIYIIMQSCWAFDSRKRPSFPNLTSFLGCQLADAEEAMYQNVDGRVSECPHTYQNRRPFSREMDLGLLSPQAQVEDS
The series can be described thus: Enzymatic kinase assay FLT3 (ITD), 10-dose IC50 mode (Reaction Biology). Format: biochemical.

Series [2] addresses T2, recombinant human FLT3 (D835Y) (Homo sapiens, UniProt P36888, D835Y).
T2 construct: purchased Reaction Biology
T2 sequence (P36888 27-993 D835Y): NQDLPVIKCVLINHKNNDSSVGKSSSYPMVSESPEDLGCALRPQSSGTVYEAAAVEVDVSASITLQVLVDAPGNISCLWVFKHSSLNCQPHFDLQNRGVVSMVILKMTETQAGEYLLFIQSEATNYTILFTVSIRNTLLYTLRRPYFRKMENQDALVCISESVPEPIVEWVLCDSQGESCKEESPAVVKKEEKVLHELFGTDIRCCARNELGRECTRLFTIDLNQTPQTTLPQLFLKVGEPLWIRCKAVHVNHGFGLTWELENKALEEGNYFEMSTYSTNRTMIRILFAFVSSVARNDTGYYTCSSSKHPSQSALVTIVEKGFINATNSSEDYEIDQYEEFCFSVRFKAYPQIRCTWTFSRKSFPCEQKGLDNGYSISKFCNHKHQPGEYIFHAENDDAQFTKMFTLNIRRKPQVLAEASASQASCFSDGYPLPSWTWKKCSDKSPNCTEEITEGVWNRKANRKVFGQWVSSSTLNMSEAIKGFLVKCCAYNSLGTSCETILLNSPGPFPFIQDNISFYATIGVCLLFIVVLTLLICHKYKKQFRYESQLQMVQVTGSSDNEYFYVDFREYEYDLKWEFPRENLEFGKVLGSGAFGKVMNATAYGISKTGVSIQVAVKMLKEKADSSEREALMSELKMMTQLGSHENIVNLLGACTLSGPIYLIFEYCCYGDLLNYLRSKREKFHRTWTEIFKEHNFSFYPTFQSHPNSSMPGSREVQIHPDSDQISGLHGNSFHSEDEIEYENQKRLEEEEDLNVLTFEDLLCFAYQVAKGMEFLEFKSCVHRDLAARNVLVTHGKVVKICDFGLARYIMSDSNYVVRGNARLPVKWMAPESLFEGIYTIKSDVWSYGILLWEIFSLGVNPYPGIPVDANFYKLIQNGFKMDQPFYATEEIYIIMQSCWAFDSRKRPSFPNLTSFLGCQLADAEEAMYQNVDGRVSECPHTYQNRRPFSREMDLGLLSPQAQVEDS
The series can be described thus: Enzymatic kinase assay FLT3 (D835Y), 10-dose IC50 mode (Reaction Biology). Format: biochemical. The note with it: 10 μM ATP.

The nature of series [3]: Solubility test by UV-Vis spectroscopy of saturated solutions. Format: physicochemical. The note with it: solvent DMSO.
Series [4] deals with MV4-11 cells (FLT3-ITD positive). Kind of series: Cell Titer-Glo proliferation assay with MV4-11 cells. Format: cell-based. The note with it: Homo sapiens, MV4-11, 72 h. Here is the method: MV4-11 cells are human acute myeloid leukemia cell lines that carry a FLT3-ITD mutation (American Type Culture Collection, ATCC, Manassas, VA, United States). Cells were cultured in IMDM medium plus 100 μg/mL penicillin, 100 μg/mL streptomycin and 10% FBS. All cells were kept at 37° C., 5% CO2.
Cell proliferation was assessed with Cell Titer-Glo® Viability Assay (Promega; Madison, WI, United States) according to the manufacturer's instructions.
(Cellular ATP, detected with luciferase, serves as a proxy for viable cell number.)

The mark [5] stands for this setting: ethanol, organic solvent or mixture, ethanol, read-out: Solubility Ethanol.
[6] abbreviates: ultrapure water, water, ultrapure water, read-out: Solubility Water.
Setting [7] is: 10 μM ATP; read-out: IC50 FLT3 (ITD).

With `CN1CCN(Cc2c(O)ccc3[nH]c(C(=O)c4cc5cc(NC(=O)Nc6cc(C(C)(C)C)on6)ccc5o4)cc23)CC1` [Compound 33a, 1-(5-(tert-Butyl)isoxazol-3-yl)-3-(2-(5-hydroxy-4-((4-methylpiperazin-1-yl)methyl)-1H-indole-2-carbonyl)benzofuran-5-yl)urea], the solubility is 4670 µg/mL (≈ 8180 µM) in series [1] (setting [5]) and less than 100 µg/mL in series [1] (setting [6]). The 50% inhibitory concentration (IC50) at human FLT3-ITD (setting [7]) came to 0.81 nM; in series [2] (read-out: IC50 FLT3 (D835Y)), 3.83 nM. Moreover, the “Solubility DMSO” value in series [3] is listed as “Soluble”.

Consider `CC(C)(C)c1cc(NC(=O)Nc2ccc3oc(C(=O)c4cc5c(CN6CCOCC6)c(OC(=O)N6CCC(N7CCCCC7)CC6)ccc5[nH]4)cc3c2)no1` [Compound 38b, 2-(5-(3-(5-(tert-Butyl)isoxazol-3-yl)ureido)benzofuran-2-carbonyl)-4-(morpholinomethyl)-1H-indol-5-yl[1,4′-bipiperidine]-1′-carboxylate bis(2,2,2-trifluoroacetate)], for which the IC50 on human FLT3-ITD (read-out: IC50 FLT3 (ITD); 10 μM ATP; bis(2,2,2-trifluoroacetate)) came out at 1.29 nM; in series [2] (IC50 FLT3 (D835Y) [nM]), 6.63 nM; in series [4] (read-out: IC50 MV4-11 cells [nM]) it was 0.38 nM.

With `CN1CCN(Cc2c(OC(=O)N3CCC(N4CCCCC4)CC3)ccc3[nH]c(C(=O)c4cc5cc(NC(=O)Nc6cc(C(C)(C)C)on6)ccc5o4)cc23)CC1` [Compound 41a, 2-(5-(3-(5-(tert-Butyl)isoxazol-3-yl)ureido)benzofuran-2-carbonyl)-4-((4-methylpiperazin-1-yl)methyl)-1H-indol-5-yl [1,4′-bipiperidine]-1′-carboxylate], the half-maximal inhibitory concentration (IC50) at human FLT3-ITD (read-out: IC50 FLT3 (ITD); 10 μM ATP) amounted to 0.7 nM; in series [2] (IC50 FLT3 (D835Y) [nM]), 2.46 nM.

In the case of `CC(C)(C)c1cc(NC(=O)Nc2ccc3oc(C(=O)c4cc5c(CN6CCNCC6)c(O)ccc5[nH]4)cc3c2)no1` [Compound 55b, 1-(5-(tert-Butyl)isoxazol-3-yl)-3-(2-(5-hydroxy-4-(piperazin-1-ylmethyl)-1H-indole-2-carbonyl)benzofuran-5-yl)urea bis(2,2,2-trifluoroacetate)], the results for the solubility in series [1] (setting [5]) and in series [1] (setting [6]) were 1140 µg/mL (≈ 2050 µM) and less than 100 µg/mL, respectively. Also, the figures for the concentration for half-maximal inhibition (IC50) (at human FLT3-ITD (setting [7]); in series [2] (read-out: IC50 FLT3 (D835Y)); in series [4] (read-out: IC50 MV4-11 cells)) were 3.36 nM, 9.55 nM and 0.42 nM, respectively. Also, the “Solubility DMSO” value in series [3] is listed as “Soluble”.

Turning to `C=CC(=O)N1CCN(Cc2c(O)ccc3[nH]c(C(=O)c4cc5cc(NC(=O)Nc6cc(C(C)(C)C)on6)ccc5o4)cc23)CC1` [Compound 56b, 1-(2-(4-((4-Acryloylpiperazin-1-yl)methyl)-5-hydroxy-1H-indole-2-carbonyl)benzofuran-5-yl)-3-(5-(tert-butyl)isoxazole-3-yl)urea 2,2,2-trifluoroacetate], the figures for the solubility in series [1] (setting [5]) and in series [1] (setting [6]) were 2540 µg/mL (≈ 4160 µM) and 220 µg/mL (≈ 360 µM), respectively. Further, the results for the IC50 (at human FLT3-ITD (setting [7]); in series [2] (read-out: IC50 FLT3 (D835Y)); in series [4] (read-out: IC50 MV4-11 cells)) were 1.47 nM, 10.8 nM and 0.17 nM, respectively. In addition, in series [3], the “Solubility DMSO” value is listed as “Soluble”.

`C/C=C/C(=O)N1CCN(Cc2c(O)ccc3[nH]c(C(=O)c4cc5cc(NC(=O)Nc6cc(C(C)(C)C)on6)ccc5o4)cc23)CC1` [Compound 57a, 1-(2-(4-((4-(But-2-enoyl)piperazin-1-yl)methyl)-5-hydroxy-1H-indole-2-carbonyl)benzofuran-5-yl)-3-(5-(tert-butyl)isoxazole-3-yl)urea]: the results for the 50% inhibitory concentration (IC50) (at human FLT3-ITD (setting [7]); in series [4] (read-out: IC50 MV4-11 cells)) were 4.36 nM and 0.24 nM, respectively.

Consider `CCN1CCN(Cc2c(O)ccc3[nH]c(C(=O)c4cc5cc(NC(=O)Nc6cc(C(C)(C)C)on6)ccc5o4)cc23)CC1` [Compound 69a, 1-(5-(tert-Butyl)isoxazol-3-yl)-3-(2-(4-((4-ethylpiperazin-1-yl)methyl)-5-hydroxy-1H-indole-2-carbonyl)benzofuran-5-yl)urea], for which the “Solubility Ethanol” value in series [1] (ethanol) worked out at 970 µg/mL (≈ 1660 µM). In series [1] (setting [6]), the solubility was less than 100 µg/mL. In addition, the IC50 on human FLT3-ITD (setting [7]) amounted to 1.28 nM; in series [2] (read-out: IC50 FLT3 (D835Y)), 4.23 nM; in series [4] (read-out: IC50 MV4-11 cells) it was 0.13 nM. Moreover, in series [3], the “Solubility DMSO” value was “Soluble”.

On to `CCN1CCN(Cc2c(O)ccc3[nH]c(C(=O)c4cc5cc(NC(=O)Nc6cc(C(C)(C)C)on6)ccc5o4)cc23)CC1` [Compound 69b], for which, in series [1] (ethanol), the “Solubility Ethanol” value is 4410 µg/mL (≈ 7540 µM). Also, the “Solubility Water” value in series [1] (ultrapure water) stood at 100 µg/mL (≈ 171 µM). For the same molecule, in series [3], the “Solubility DMSO” value is given as “Soluble”.

With `CC(C)N1CCN(Cc2c(O)ccc3[nH]c(C(=O)c4cc5cc(NC(=O)Nc6cc(C(C)(C)C)on6)ccc5o4)cc23)CC1` [Compound 70a, 1-(5-(tert-Butyl)isoxazol-3-yl)-3-(2-(5-hydroxy-4-((4-isopropylpiperazin-1-yl)methyl)-1H-indole-2-carbonyl)benzofuran-5-yl)urea], the solubility in series [1] (setting [5]) is 920 µg/mL (≈ 1540 µM). The “Solubility Water” value in series [1] (ultrapure water) was less than 100 µg/mL. The IC50 at human FLT3-ITD (setting [7]) is 1.98 nM; in series [2] (read-out: IC50 FLT3 (D835Y)), 2.6 nM; in series [4] (read-out: IC50 MV4-11 cells) it was 0.31 nM. For the same molecule, in series [3], the “Solubility DMSO” value is “Soluble”.

For the origin of these results see patent US20260184702A1, “SYNTHESIS, PHARMACOLOGY AND USE OF NEW WATER-SOLUBLE AND SELECTIVE FMS-LIKE TYROSINE KINASE3 (FLT3) INHIBITORS” (Universität Regensburg, priority 2022, published 2026).
